SMILES strings stand for the structures.

A short description of the data set: gradient 5% acetonitrile 3 min, to 50% in 2 min, to 85% in 15 min, held 3 min, 100 µL/min. Conditions: column: Zorbax Extend-C18 2.1 x 50 mm; eluents: water / acetonitrile, 0.1% formic acid. In short, it runs like this:
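In both positive and negative ionization mode, a quadrupole time-of-flight mass spectrometer coupled to HPLC analyzed pure standards run in mixtures of ~100 molecules. The Zorbax Extend-C18 column (2.1 × 50 mm, 1.8 μm) was operated at 100 μL/min with water and acetonitrile, each containing 0.1% formic acid. The dead volume was 40 μL and the dwell volume 900 μL. Retention time came from adduct peaks that were computationally picked and individually inspected by hand.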
In turn, `COc1ccc(C(O)Cn2ccn3nc(-c4cccs4)cc3c2=O)cc1` (stereo unspecified) yielded an RP-LC retention time of 848 s.

With `COCCn1nnnc1C1CC2(CCOCC2)C(=O)N1Cc1cc(F)cc(F)c1` (stereo unspecified), the RP-LC retention time was 740 s.

Consider `CCn1cc(-c2nc(C)c(C(=O)Nc3ccccc3F)s2)c2cccnc21`, for which the RP-LC retention time was determined as 1000 s.

In the case of `Cc1cccc(CNC(=O)CN2CCN(Cc3ccc(F)cc3)C2=O)c1`, the RP-LC retention time was determined as 831 s.

The molecule `COc1ccc(CN2C=C(C(=O)OCc3nc(C4CC4)no3)C(C)=NS2(=O)=O)cc1` showed an RP-LC retention time of 972 s.

Molecule `Cc1ccccc1Nc1c(-c2ccc(Cl)cc2Cl)nc2cnccn12` displayed an RP-LC retention time of 1030 s.

Turning to `Nc1n[nH]c(-c2ccccc2)n1`, the RP-LC retention time worked out at 619 s.

Molecule `COC(=O)c1ccc(NC(=O)Cc2csc(Nc3ccc(S(C)(=O)=O)cc3)n2)cc1` gave an RP-LC retention time of 698 s.

In turn, `Cc1cccc(Oc2cc(N3CCC(C(=O)NCCCOC(C)C)CC3)ncn2)c1C` came in with an RP-LC retention time of 883 s.

In the case of `O=C(CCn1nnc2cc(-c3noc(-c4ccccc4F)n3)ccc21)N1CCCC1`, the RP-LC retention time came to 865 s.

Regarding `COc1ccc(CNC(=O)CCC2CCN(c3cc(NC4CC4)ncn3)CC2)cc1`, the RP-LC retention time was found to be 645 s.

In turn, `CSc1nnc(-c2nn(C)c3c2CN(C(=O)c2ccc(F)cc2)CC3)n1C` showed an RP-LC retention time of 656 s.

As to `O=C(N[C@@H]1CN(c2ncccn2)C[C@H]1CO)c1ccc(Cl)cc1`, the RP-LC retention time stood at 628 s.

The molecule `COc1ccc(NC(=O)Cn2c(=O)n(-c3ccccc3)c(=O)c3c2cc(C)n3C)cc1` displayed an RP-LC retention time of 766 s.

Molecule `Cc1cccc(S(=O)(=O)Nc2ccc3c(c2)CCC(=O)N3)c1` came in with an RP-LC retention time of 689 s.

Turning to `COCCCNC(=O)c1ccc(-c2nc3cccnc3n(C3CCCC3)c2=O)cc1`, the RP-LC retention time was determined as 867 s.

Consider `CCn1cnc(S(=O)(=O)N2CCC(C(=O)NCc3ccc(Cl)cc3)CC2)c1`, for which the RP-LC retention time is 729 s.

`O=C(Nc1ccc(N2CCN(C3CCCC3)C2=O)nc1)c1ccccc1` gave an RP-LC retention time of 817 s.

In turn, `O=C(c1ccccc1[N+](=O)[O-])N1c2nc(-c3ccccc3)nn2C2(CCCCC2)[C@@H]2CCCC[C@@H]21` showed an RP-LC retention time of 755 s.

In turn, `CCCNC(=O)C1CCN(c2ccc(SCC(=O)Nc3cccc(Cl)c3C)nn2)CC1` registered an RP-LC retention time of 678 s.

In the case of `O=C(NCCCN1CCCC1=O)c1ccc2ncnc(N3CCCCC3)c2c1`, the RP-LC retention time came to 584 s.

Consider `O=C(CN1CCC(c2nc(-c3cccs3)no2)CC1)NCc1ccc(F)cc1`, for which the RP-LC retention time was determined as 684 s.

Molecule `CC(C)c1ccc(NC(=O)C(=O)c2cn(CC(=O)N3CCCC3)c3ccccc23)cc1` displayed an RP-LC retention time of 1140 s.

Molecule `Cc1nc2cc(NC(=O)c3ccc(S(=O)(=O)N(C)CC4CCCO4)cc3)ccc2s1` (stereo unspecified) had an RP-LC retention time of 764 s.

`COC(=O)C1=CN(C2CC2)c2cc(N3CCOCC3)c(F)cc2S1(=O)=O` displayed an RP-LC retention time of 736 s.

For the molecule `CCC(=O)Nc1ccc(-n2cnc(C(=O)N3CCN(c4ccc(C)cc4C)CC3)c2)nc1`, the RP-LC retention time amounted to 865 s.

For `O=C1CC(c2noc(-c3cc(F)cc(F)c3)n2)CN1c1ccc(F)cc1` (stereo unspecified), the RP-LC retention time amounted to 944 s.

Turning to `CCOC(=O)c1c(C)[nH]c(C(=O)N2CCC(C(C)C(=O)N3CCCC3)CC2)c1C` (stereo unspecified), the RP-LC retention time was 715 s.

The molecule `O=C(Nc1cnc(N2CCCC2)nc1)c1ccccc1C(F)(F)F` came in with an RP-LC retention time of 740 s.

For `Fc1ccc(-c2nc(-c3ccc(-n4ccnc4)nc3)no2)cc1F`, the RP-LC retention time was 871 s.

For the molecule `NCCNS(=O)(=O)c1cccc2c(Cl)cccc12`, the RP-LC retention time is 701 s.

On to `O=C(c1ccc(Br)cc1)N1CCN(c2nc(CN3CCCCC3)cs2)CC1`, for which the RP-LC retention time stood at 655 s.

Regarding `CC(NC(=O)c1c(O)c2cccnc2n(-c2cccc(F)c2)c1=O)c1ccccc1` (stereo unspecified), the RP-LC retention time came to 1230 s.

In turn, `CCOC(=O)c1cnc2ccc(OCC)cc2c1N1CCN(c2ccccc2)CC1` showed an RP-LC retention time of 930 s.

For the molecule `Cc1cnc(C(=O)N2CCOCCNC(=O)[C@@H]3CCC[C@@H]32)cn1`, the RP-LC retention time worked out at 599 s.

The molecule `O=C(NCc1ccccc1)C1CCN(C(=O)C2Sc3ccccc3NC2=O)CC1` (stereo unspecified) registered an RP-LC retention time of 741 s.

The molecule `CCNS(=O)(=O)c1cccnc1Nc1cccc(Br)c1` displayed an RP-LC retention time of 1040 s.

`CCn1cnc(S(=O)(=O)N2CCC(C(=O)NC3CCCCCC3)CC2)c1`: the RP-LC retention time is 737 s.

In the case of `O=C(c1cc(-c2cccnc2)n[nH]1)N1CCN(C(=O)c2cccc3[nH]ccc23)CC1`, the RP-LC retention time is 598 s.

Molecule `Cc1nnc2ccc(NC3CCCC3)nn12` displayed an RP-LC retention time of 818 s.

`CC(C)NC(=O)N1CCOc2ccccc21` registered an RP-LC retention time of 774 s.

On to `Cc1ccccc1NC(=O)CC1COc2ccccc2NC1=O` (stereo unspecified), for which the RP-LC retention time amounted to 700 s.

`CCc1ccccc1NC(=O)C1(C)Oc2cccnc2N(C)C1=O` (stereo unspecified) yielded an RP-LC retention time of 814 s.

`Fc1cccc(-c2nc(-c3ccc(-n4cccn4)nc3)no2)c1`: the RP-LC retention time was determined as 1220 s.

Take `CCOC(=O)c1noc2nc(C)nc(NCc3ccccc3OC)c12`: the RP-LC retention time was found to be 1100 s.

As for `CCc1noc(C2CCCCN2Cc2cc(F)ccc2F)n1` (stereo unspecified), the RP-LC retention time came out at 939 s.

Molecule `CCn1ccc2sc(C)c(C(=O)NCc3ccccc3Cl)c2c1=O` registered an RP-LC retention time of 879 s.

The molecule `Cc1ccc(NS(=O)(=O)c2ccc(-c3c(C)noc3C)cc2)cc1` gave an RP-LC retention time of 928 s.

`CCS(=O)(=O)N1CC(=O)N(c2cccc(C)c2C)C(C)(C(=O)NCc2ccc(F)cc2)C1` (stereo unspecified) displayed an RP-LC retention time of 848 s.

`Cc1ccc(-c2nc(NC(=O)c3cc(C)on3)sc2C)cc1` came in with an RP-LC retention time of 1090 s.

Molecule `CCC(C)NC(=O)Cn1c(=O)n(CC(C)C)c(=O)c2nscc21` (stereo unspecified) yielded an RP-LC retention time of 735 s.

The molecule `CCOc1ccccc1N1CCN(S(=O)(=O)c2nn(C)cc2C(=O)NCC2CC2)CC1` returned an RP-LC retention time of 973 s.

On to `Cc1nccn1-c1ccc(N2CCN(C(=O)c3cc4ccccc4o3)CC2)nn1`, for which the RP-LC retention time is 560 s.

With `CCC(c1cccs1)N1C(=O)[C@H]2CN(S(=O)(=O)c3cc(F)ccc3F)C[C@H]2C1=O` (stereo partly specified), the RP-LC retention time turned out to be 936 s.

`N#Cc1cccc(S(=O)(=O)N2CCc3nc(-c4ccccc4)ncc3C2)c1` displayed an RP-LC retention time of 987 s.

The molecule `COc1ccccc1CN1CCC(CNS(=O)(=O)c2ccc3c(c2)CCCC(=O)N3)CC1` gave an RP-LC retention time of 566 s.

In turn, `COc1ccc(-c2cn3ccn(-c4ccc(F)c(Cl)c4)c(=O)c3n2)cc1OC` came in with an RP-LC retention time of 804 s.

`CCC(=O)N1CCc2cc(N3CC(C(=O)Nc4ccc(C)cc4Cl)CC3=O)ccc21` (stereo unspecified) yielded an RP-LC retention time of 789 s.

The molecule `CCOCC(=O)N1CCCN(C2=NS(=O)(=O)C(c3ccc(C)cc3)=C2C)CC1` registered an RP-LC retention time of 752 s.

Take `CCOc1ccc(-c2cc(=O)n(CCCC(=O)Nc3cccc(SC)c3)cn2)cc1`: the RP-LC retention time came to 847 s.

For the molecule `CCS(=O)(=O)N1CC(=O)N(c2ccc(Cl)cc2)C(C)(C(=O)NC2CCCCC2)C1` (stereo unspecified), the RP-LC retention time came out at 882 s.

Take `CC(C)c1noc(C2(NC(=O)CCC3CCCC3)CCCCC2)n1`: the RP-LC retention time amounted to 1120 s.

Consider `O=C(CCc1c(-c2ccc(Cl)cc2)nc2ccccn12)NCC1CCCO1` (stereo unspecified), for which the RP-LC retention time is 602 s.

On to `O=C(CN1C(=O)CCc2cc(Br)ccc21)Nc1ccccc1`, for which the RP-LC retention time came to 889 s.

`O=C1CN(Cc2ccc(F)cc2Cl)C2(CCCC2)CN1` had an RP-LC retention time of 668 s.

`CC(C)NC(=O)c1ccc(Cn2cncn2)cc1` returned an RP-LC retention time of 597 s.

Molecule `Cc1noc2nc(C)n(CC(=O)Nc3ccccc3C(F)(F)F)c(=O)c12` yielded an RP-LC retention time of 779 s.

`CCNC(=O)C1CCN(S(=O)(=O)c2cc(C(=O)N3CCCCCC3)cs2)CC1`: the RP-LC retention time is 717 s.

Take `O=C1NC(C(=O)NC2CCCCC2)Cn2cccc21` (stereo unspecified): the RP-LC retention time was found to be 651 s.

In turn, `CCC(C)(C)NC(=O)CCNc1c(-c2ccc(F)cc2)nc2cnccn12` gave an RP-LC retention time of 754 s.

`NS(=O)(=O)c1ccc(NS(=O)(=O)c2cc(-c3noc(C4CCCC4)n3)cs2)cc1` displayed an RP-LC retention time of 882 s.

Turning to `CCOc1ccc(-c2cc3c(=O)n(Cc4nc(-c5ccc6c(c5)OCO6)no4)ncn3n2)cc1`, the RP-LC retention time was 1100 s.

For the molecule `O=C(NCc1ccco1)C1CCN(Cc2cc3ccccc3n2Cc2ccc(Cl)cc2)CC1`, the RP-LC retention time came out at 783 s.

`Cc1cnc(CC2CCN(S(=O)(=O)c3ccc(C#N)cc3)C2)n1C1CC1` (stereo unspecified) displayed an RP-LC retention time of 654 s.

The molecule `CCc1nc(-c2csc(S(=O)(=O)N3CCC(C(=O)NCc4ccccc4)CC3)c2)no1` came in with an RP-LC retention time of 702 s.

In turn, `O=C(NCCN1CCOCC1)C1CC(=O)N(CCc2c[nH]c3ccc(Cl)cc23)C1` (stereo unspecified) showed an RP-LC retention time of 604 s.

Molecule `O=C(Nc1cc(-c2ccsc2)no1)C1CCCC1` came in with an RP-LC retention time of 918 s.

`CCNC(=O)N1CC(Oc2cccc(-c3nc(-c4ccccc4)no3)c2)C1` gave an RP-LC retention time of 939 s.

Turning to `COc1cc(/C=C(\C)c2ccc3c(c2)OCO3)cc(OC)c1OC`, the RP-LC retention time amounted to 1030 s.

Consider `O=C(Nc1cc(F)c(F)c(F)c1)N1CCc2nc[nH]c2C1`, for which the RP-LC retention time is 614 s.

Molecule `CCOc1ccccc1C(=O)N1CCC2(CC1)N=C(c1cccc(Br)c1)NO2` registered an RP-LC retention time of 951 s.

The values are drawn from the METLIN SMRT retention time set (Domingo-Almenara et al. 2019).
